According to publication PMC6268061, “Investigation of the Biological Properties of (Hetero)Aromatic Thiosemicarbazones” (Molecules, 2012):

What was measured:
[1] = Lipophilicity determination using RP-HPLC (capacity factor, log k); type: physicochemical; conditions: C18, MeOH 55%/H2O 45%
Outline: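 Isocratic RP-HPLC on a C18 column (5 μm, 4.6 × 250 mm), 55% MeOH/45% water at 0.9 mL/min, 30 °C, UV detection 210 nm. Dead time from KI; capacity factor k = (tR − tD)/tD, with log k taken as the lipophilicity index on log P scale.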

[2] = tested on: photosynthetic electron transport (PET) in spinach chloroplasts; experiment: Inhibition of photosynthetic electron transport (PET) in spinach chloroplasts; type: biochemical, Spinacia oleracea L.; conditions: DCPIP photoreduction
Outline: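 PET in spinach chloroplasts was followed spectrophotometrically as DCPIP photoreduction in pH 7.2 phosphate buffer with sucrose, MgCl2 and NaCl, at 30 mg/L chlorophyll, under halogen-lamp irradiation at 22 °C. Compounds were added in DMSO. IC50 is the molar concentration halving the rate relative to untreated control.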

Row | SMILES | log k [1] | IC50 [2]
1 | CN(C)C(=S)N/N=C/c1ccc(Br)cc1 [Compound 3m, (E)-2-(4-bromobenzylidene)-N,N-dimethylhydrazinecarbothioamide] | 0.6784 | 595 µM
2 | CN(C)C(=S)N/N=C/c1ccc(Cl)c(Cl)c1 [Compound 3h, (E)-2-(3,4-Dichlorobenzylidene)-N,N-dimethylhydrazinecarbothioamide] | 0.7555 | 329 µM
3 | NC(=S)N/N=C/c1ccc(Br)cc1 [Compound 3k, (E)-2-(4-Bromobenzylidene)hydrazinecarbothioamide] | 0.6580 | 586 µM
